The record followed here is publication PMC3057018, “Inhibition of Recombinant D-Amino Acid Oxidase from Trigonopsis variabilis by Salts” (Enzyme Research, 2011).

A word on the Ki: it is the dissociation constant of the complex between target and ligand, obtained from inhibition or displacement.

Assay [1] concerns the target T1, TvDAAO (recombinant His-tagged D-amino acid oxidase from Trigonopsis variabilis) (Trigonopsis variabilis, UniProt Q99042). Kind of assay: DNPH end-point assay of pyruvate at […] nm. The class given is biochemical. Further details: gene DAO1; N-terminal hexahistidine tag, expressed in E. coli mainly as apoenzyme, metal-chelate purified, holoenzyme reconstituted with FAD. Conditions: FAD added, potassium phosphate pH 8.0, 30 °C.

Assay [2] addresses T1, TvDAAO (recombinant His-tagged D-amino acid oxidase from Trigonopsis variabilis). Kind of assay: intrinsic tryptophan fluorescence (excitation […] nm) of reconstituted holoenzyme with NaCl. The class given is binding. Also noted: gene DAO1; N-terminal hexahistidine tag, expressed in E. coli mainly as apoenzyme, metal-chelate purified, holoenzyme reconstituted with FAD. Particulars: 25 °C; FAD dissociation by NaCl followed indirectly; holoenzyme reconstituted with 5-fold FAD; noncovalent.

The target is the same in assay [3]. Kind of assay: biochemical. Further details: gene DAO1.

T1 sequence (Q99042 whole entry): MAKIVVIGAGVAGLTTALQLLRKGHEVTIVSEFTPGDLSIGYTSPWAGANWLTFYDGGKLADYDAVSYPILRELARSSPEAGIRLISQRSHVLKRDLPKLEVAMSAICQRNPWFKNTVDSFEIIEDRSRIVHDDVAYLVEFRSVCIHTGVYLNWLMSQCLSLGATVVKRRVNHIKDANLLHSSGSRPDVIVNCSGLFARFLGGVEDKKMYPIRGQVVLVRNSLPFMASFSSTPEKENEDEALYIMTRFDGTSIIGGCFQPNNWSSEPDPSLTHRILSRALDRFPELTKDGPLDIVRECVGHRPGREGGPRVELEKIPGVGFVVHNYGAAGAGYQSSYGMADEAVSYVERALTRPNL

Turning to `C[C@@H](N)C(=O)O` [D-alanine], the “DNPH end-point assay of pyruvate at 450 nm” value in assay [1] was “measured the release of α-ketoacid from D-alanine during the reaction”.

Regarding `Cc1cc2nc3c(=O)[nH]c(=O)nc-3n(C[C@H](O)[C@H](O)[C@H](O)COP(=O)(O)OP(=O)(O)OC[C@H]3O[C@@H](n4cnc5c(N)ncnc54)[C@H](O)[C@@H]3O)c2cc1C` [FAD], the “intrinsic tryptophan fluorescence (excitation 295 nm) of reconstituted holoenzym” value in assay [2] is “Such an effect may be related to the loss of cofactor FAD”. As for `Cl` [NaCl], the Ki in assay [3] turned out to be 85 mM.
